One may read the EC50 as the concentration that produces a half-maximal response. What is called CC50 is the concentration giving 50% cytotoxicity.

In US20230008368A1, “IMIDAZOQUINOLINE SUBSTITUTED PHOSPHORIC ESTER AGONIST, AND PREPARATION THEREFOR AND APPLICATION THEREOF” (SUZHOU ZELGEN BIOPHARMACEUTICALS CO., LTD., priority 2019, published 2023) one finds EC50 and CC50 data, which are given here for 27 molecules.

For one data set, the target named is T1, hTLR8 (Homo sapiens, UniProt Q9NR97).
T1 construct: expressed in transfected cells; host or cells: HEK-Blue hTLR cells
T1 sequence (Q9NR97 27-1041): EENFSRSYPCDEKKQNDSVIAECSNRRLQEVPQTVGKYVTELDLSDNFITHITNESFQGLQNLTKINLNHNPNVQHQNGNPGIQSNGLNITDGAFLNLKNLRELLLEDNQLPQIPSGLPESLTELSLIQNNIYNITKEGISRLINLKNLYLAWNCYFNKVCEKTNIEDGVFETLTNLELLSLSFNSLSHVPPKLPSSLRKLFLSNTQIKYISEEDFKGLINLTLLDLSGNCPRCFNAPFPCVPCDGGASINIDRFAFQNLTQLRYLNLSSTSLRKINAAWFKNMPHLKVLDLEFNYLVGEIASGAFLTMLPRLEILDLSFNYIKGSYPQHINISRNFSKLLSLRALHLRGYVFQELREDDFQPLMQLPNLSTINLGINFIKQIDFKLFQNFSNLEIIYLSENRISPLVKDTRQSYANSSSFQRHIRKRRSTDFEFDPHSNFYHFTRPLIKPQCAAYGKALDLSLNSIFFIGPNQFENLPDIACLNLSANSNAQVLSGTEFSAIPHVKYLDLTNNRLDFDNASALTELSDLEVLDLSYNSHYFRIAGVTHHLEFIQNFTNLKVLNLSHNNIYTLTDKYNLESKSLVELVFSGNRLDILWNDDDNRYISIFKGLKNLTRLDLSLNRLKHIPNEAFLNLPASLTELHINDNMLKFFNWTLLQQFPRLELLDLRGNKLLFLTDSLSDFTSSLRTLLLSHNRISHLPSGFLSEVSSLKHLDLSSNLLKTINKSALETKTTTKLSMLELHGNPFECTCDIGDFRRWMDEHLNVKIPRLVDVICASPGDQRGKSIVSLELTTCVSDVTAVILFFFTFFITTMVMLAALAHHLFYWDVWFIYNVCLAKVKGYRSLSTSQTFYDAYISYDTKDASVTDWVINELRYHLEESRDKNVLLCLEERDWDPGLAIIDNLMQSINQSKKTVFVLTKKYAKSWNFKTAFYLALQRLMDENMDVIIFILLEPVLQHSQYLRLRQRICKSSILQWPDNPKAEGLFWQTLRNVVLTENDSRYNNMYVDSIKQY
The experiment in a line: agonistic activity on hTLR8, HEK-Blue hTLR cells, SEAP reporter (QUANTI-Blue). It is filed as cell-based. As to conditions: HEK-Blue hTLR cells, SEAP reporter, OD650, cultured 1 day; read-out: TLR 8 EC50. The protocol:
Experiments on the agonistic activity of TLR7 and TLR8 by the compounds in vitro
(§1) The compound was diluted with 1:3 series with DMSO for 9 concentration points, duplicated wells, and added to 96-well plate with Echo.
(§2) The HEK-Blue™ hTLR cells were suspended in the culture medium and then seeded into a 96-well plate containing the compound at a density of 50,000 cells/well. Cells were cultured at 5% CO2 and 37° C. for 1 day. The final concentration of DMSO in the cell culture medium was 0.5%.
20 uL cell culture supernatant was taken, according to the QUANTI-Blue instructions, the reporter gene SEAP in the supernatant was detected, and the OD650 signal value was read with a microplate reader to calculate the agonist activity of the compound on the hTLR7 and hTLR8.
(§3) The EC50 and CC50 values of the compound were calculated by GraphPad Prism software, and the fitting curve was plotted.

Data set [1] in a line: cytotoxicity, cell viability by CellTiter-Glo. Format: cell-based, human. As to conditions: human, HEK-Blue hTLR cells, cultured 1 day. The procedure:
as §1, §2
According to the CellTiter-Glo instructions, the cell viability was measured, and the Luminescence signal value was read by the microplate reader, which was used to calculate the cytotoxicity of the compound.
as §3
Background: Cellular ATP, detected with luciferase, serves as a proxy for viable cell number.

Consider `CCOCc1nc2c(N)nc3ccccc3c2n1C[C@@H](C)O[P@](=O)(N[C@@H](C)C(=O)OCc1ccccc1)Oc1ccccc1` (single isomer, unassigned) [Example 16B], for which the EC50 on hTLR8 amounted to 11.5 nM. In data set [1], this molecule returned a CC50 at 1 day of over 30000 nM.

As for `CCOCc1nc2c(N)nc3ccccc3c2n1C[C@@H](C)O[P@@](=O)(N[C@@H](C)C(=O)OC(C)C)Oc1cccc(C)c1` (single isomer, unassigned) [Example 8A], at hTLR8, the EC50 was 36 nM. Besides, in data set [1], the CC50 at 1 day was over 30000 nM.

Regarding `CCOCc1nc2c(N)nc3ccccc3c2n1C[C@@H](C)O[P@@](=O)(N[C@@H](C)C(=O)OC(C)C)Oc1ccccc1C` (single isomer, unassigned) [Example 7A], the EC50 on hTLR8 came to 213 nM. In addition, the CC50 at 1 day in data set [1] was over 30000 nM.

As to `CCOCc1nc2c(N)nc3ccccc3c2n1C[C@@H](C)O[P@](=O)(N[C@@H](C)C(=O)OC(C)C)Oc1ccc(Cl)cc1` (single isomer, unassigned) [Example 12B], at hTLR8, the EC50 was found to be 49 nM. The same molecule returned a CC50 at 1 day in data set [1] of over 30000 nM.

`CCOCc1nc2c(N)nc3ccccc3c2n1C[C@@H](C)O[P@@](=O)(N[C@@H](C)C(=O)OC(C)C)Oc1ccccc1Cl` (single isomer, unassigned) [Example 10A]: the EC50 on hTLR8 is 34 nM. In addition, in data set [1], the CC50 at 1 day is over 30000 nM.

For the molecule `CCOCc1nc2c(N)nc3ccccc3c2n1C[C@@H](C)O[P@](=O)(N[C@@H](C)C(=O)OC(C)(C)C)Oc1ccc(OC)cc1` (single isomer, unassigned) [Example 18B], the EC50 on hTLR8 is 2450 nM. The CC50 at 1 day in data set [1] is over 30000 nM.

Turning to `CCOCc1nc2c(N)nc3ccccc3c2n1C[C@@H](C)O[P@](=O)(N[C@@H](C)C(=O)OC(C)(C)C)Oc1ccc(Cl)cc1` (single isomer, unassigned) [Example 19B], the EC50 at hTLR8 turned out to be 2540 nM. The CC50 at 1 day in data set [1] is over 30000 nM.

Take `CCOCc1nc2c(N)nc3ccccc3c2n1C[C@@H](C)O[P@](=O)(N[C@@H](C)C(=O)OC)Oc1ccccc1` (single isomer, unassigned) [Example 15B]: the EC50 at hTLR8 turned out to be 48 nM. This molecule also returned a CC50 at 1 day in data set [1] of over 30000 nM.

Consider `CCOCc1nc2c(N)nc3ccccc3c2n1C[C@@H](C)OP(=O)(N[C@H](C(=O)OC(C)(C)C)C(C)C)Oc1ccc(Cl)cc1` (stereo partly shown) [Example 22], for which the EC50 at hTLR8 stood at 1820 nM.

Regarding `CCOCc1nc2c(N)nc3ccccc3c2n1C[C@@H](C)O[P@](=O)(N[C@@H](C)C(F)(F)F)Oc1ccc(Cl)cc1` [Example 24B, (R)-1-(4-amino-2-(ethoxymethyl)-1H-imidazo [4,5-c]quinolin-1-yl) propan-2-yl (4-chlorophenyl) (R)—((S)-1,1,1-trifluoropropan-2-yl) phosphoramide], the EC50 at hTLR8 is over 30000 nM.

For `CCOCc1nc2c(N)nc3ccccc3c2n1C[C@@H](C)O[P@@](=O)(N[C@@H](C)C(C)C)Oc1ccc(Cl)cc1` [Example 23A, (R)-1-(4-amino-2-(ethoxymethyl)-1H-imidazo [4,5-c]quinolin-1-yl) propan-2-yl (4-chlorophenyl) (S)—((S)-3-methylbutan-2-yl) phosphoramide], on hTLR8, the EC50 is over 30000 nM.

As for `CCOCc1nc2c(N)nc3ccccc3c2n1C[C@@H](C)O[P@@](=O)(N[C@@H](C)COC)Oc1ccc(Cl)cc1` [Example 25A, (R)-1-(4-amino-2-(ethoxymethyl)-1H-imidazo [4,5-c]quinolin-1-yl) propan-2-yl (4-chlorophenyl) (S)—((S)-1-methoxypropan-2-yl) phosphoramide], at hTLR8, the EC50 was over 30000 nM.

For the molecule `CCOCc1nc2c(N)nc3ccccc3c2n1C[C@@H](C)O[P@](=O)(N[C@@H](C)C(=O)OC(C)C)Oc1ccc2ccccc2c1` (single isomer, unassigned) [Example 6B], the EC50 on hTLR8 turned out to be 23 nM. In addition, in data set [1], the CC50 at 1 day is over 30000 nM.

As for `CCOCc1nc2c(N)nc3ccccc3c2n1C[C@@H](C)O[P@](=O)(N[C@@H](C)C(=O)OC(C)C)Oc1ccccc1Cl` (single isomer, unassigned) [Example 10B], the EC50 at hTLR8 amounted to 13 nM. This molecule had a CC50 at 1 day in data set [1] of over 30000 nM.

As for `CCOCc1nc2c(N)nc3ccccc3c2n1C[C@@H](C)OP(=O)(N[C@@H](C)C(F)(F)F)Oc1ccccc1` (single isomer, unassigned) [Example 24A], at hTLR8, the EC50 is over 30000 nM.

Take `CCOCc1nc2c(N)nc3ccccc3c2n1C[C@@H](C)O[P@](=O)(N[C@@H](C)C(C)C)Oc1ccc(Cl)cc1` [Example 23B, (R)-1-(4-amino-2-(ethoxymethyl)-1H-imidazo [4,5-c]quinolin-1-yl) propan-2-yl (4-chlorophenyl) (R)—((S)-3-methylbutan-2-yl) phosphoramide]: at hTLR8, the EC50 amounted to 18000 nM.

With `CCOCc1nc2c(N)nc3ccccc3c2n1C[C@@H](C)O[P@@](=O)(N[C@H](C)C(=O)OC(C)C)Oc1ccccc1` (single isomer, unassigned) [Example 13A], the EC50 at hTLR8 was determined as 764 nM. The CC50 at 1 day in data set [1] is over 30000 nM.

`CCOCc1nc2c(N)nc3ccccc3c2n1C[C@@H](C)O[P@](=O)(N[C@@H](C)C(=O)OC(C)C)Oc1ccc(C)cc1` (single isomer, unassigned) [Example 9B]: on hTLR8, the EC50 came out at 71 nM. For the same molecule, the CC50 at 1 day in data set [1] was over 30000 nM.

For the molecule `CCOCc1nc2c(N)nc3ccccc3c2n1C[C@@H](C)O[P@](=O)(N[C@@H](C)C(=O)OC(C)C)Oc1cccc(Cl)c1` (single isomer, unassigned) [Example 11B], the EC50 on hTLR8 stood at 71 nM. Further, the CC50 at 1 day in data set [1] is over 30000 nM.

Turning to `CCOCc1nc2c(N)nc3ccccc3c2n1C[C@@H](C)O[P@](=O)(N[C@@H](C)C(=O)OC(C)(C)C)Oc1ccc(C)cc1` (single isomer, unassigned) [Example 17B], on hTLR8, the EC50 stood at 2920 nM. In addition, the CC50 at 1 day in data set [1] is over 30000 nM.

For the molecule `CCOCc1nc2c(N)nc3ccccc3c2n1C[C@@H](C)O[P@](=O)(N[C@@H](C)C(=O)OC(C)(C)C)Oc1ccccc1` (single isomer, unassigned) [Example 14B], the EC50 at hTLR8 amounted to 1290 nM. The same molecule came in with a CC50 at 1 day in data set [1] of over 30000 nM.

As for `CCOCc1nc2c(N)nc3ccccc3c2n1C[C@@H](C)O[P@](=O)(N[C@@H](C)COC)Oc1ccc(Cl)cc1` [Example 25B, (R)-1-(4-amino-2-(ethoxymethyl)-1H-imidazo [4,5-c]quinolin-1-yl) propan-2-yl (4-chlorophenyl) (R)—((S)-1-methoxypropan-2-yl) Phosphoramide], the EC50 on hTLR8 is over 30000 nM.

On to `CCOCc1nc2c(N)nc3ccccc3c2n1CC(C)(C)O` [Example R848, reference compound], for which the CC50 at 1 day in data set [1] is over 10000 nM.

Turning to `CCOCc1nc2c(N)nc3ccccc3c2n1C[C@@H](C)O[P@@](=O)(N[C@@H](C)C(=O)OC)Oc1ccccc1` (single isomer, unassigned) [Example 15A], the EC50 at hTLR8 worked out at 68 nM. Moreover, in data set [1], the CC50 at 1 day is over 30000 nM.

Turning to `CCOCc1nc2c(N)nc3ccccc3c2n1C[C@@H](C)O[P@](=O)(N[C@@H](C)C(=O)OC(C)C)Oc1ccccc1C` (single isomer, unassigned) [Example 7B], at hTLR8, the EC50 turned out to be 41 nM. The CC50 at 1 day in data set [1] is over 30000 nM.

As to `CCOCc1nc2c(N)nc3ccccc3c2n1C[C@@H](C)O[P@](=O)(N[C@@H](C)C(=O)OC(C)C)Oc1cccc(C)c1` (single isomer, unassigned) [Example 8B], on hTLR8, the EC50 amounted to 65 nM. The molecule also gave a CC50 at 1 day in data set [1] of over 30000 nM.

As to `CCOCc1nc2c(N)nc3ccccc3c2n1C[C@@H](C)O[P@](=O)(N[C@H](C)C(=O)OC(C)C)Oc1ccccc1` (single isomer, unassigned) [Example 13B], the EC50 at hTLR8 is 1850 nM. Further, the CC50 at 1 day in data set [1] is over 30000 nM.
